The record followed here is patent US20080221086A1, “Novel Inhibitors of Glutaminyl Cyclase” (PROBIODRUG AG, priority 2006, published 2008).

One may read the pIC50 as −log10 of the IC50, conventionally taken in molar units.

pIC50: −log10 of the molar value. Read-outs that look alike come from different tables or passages of the source.

The target of the assay is hQC (Homo sapiens, UniProt Q16769). As to the kind of experiment: Fluorometric assay of glutaminyl cyclase (QC) inhibition, H-Gln-βNA or H-Gln-AMC substrate. In kind it is biochemical. As for the experimental part:
All compounds were immediately tested regarding their activity as hQC inhibitors.
The purity of the compounds was determined by HPLC-MS. The IC50 value against hQC was measured using the fluorescent assay.
All measurements were performed with a BioAssay Reader HTS-7000Plus for microplates (Perkin Elmer) at 30° C. QC activity was evaluated fluorometrically using H-Gln-βNA. The samples consisted of 0.2 mM fluorogenic substrate, 0.25 U pyroglutamyl aminopeptidase (Unizyme, Hørsholm, Denmark) in 0.2 M Tris/HCl, pH 8.0 containing 20 mM EDTA and an appropriately diluted aliquot of QC in a final volume of 250 μl. Excitation/emission wavelengths were 320/410 nm. The assay reactions were initiated by addition of glutaminyl cyclase. QC activity was determined from a standard curve of β-naphthylamine under assay conditions. One unit is defined as the amount of QC catalyzing the formation of 1 μmol pGlu-βNA from H-Gln-βNA per minute under the described conditions.
In a second fluorometric assay, QC was activity was determined using H-Gln-AMC as substrate. Reactions were carried out at 30° C. utilizing the NOVOStar reader for microplates (BMG labtechnologies). The samples consisted of varying concentrations of the fluorogenic substrate, 0.1 U pyroglutamyl aminopeptidase (Qiagen) in 0.05 M Tris/HCl, pH 8.0 containing 5 mM EDTA and an appropriately diluted aliquot of QC in a final volume of 250 μl. Excitation/emission wavelengths were 380/460 nm. The assay reactions were initiated by addition of glutaminyl cyclase. QC activity was determined from a standard curve of 7-amino-4-methylcoumarin under assay conditions. The kinetic data were evaluated using GraFit software.
For inhibitor testing, the sample composition was the same as described above, except of the putative inhibitory compound added. For a rapid test of QC-inhibition, samples contained 4 mM of the respective inhibitor and a substrate concentration at 1 KM. For detailed investigations of the inhibition and determination of Ki-values, influence of the inhibitor on the auxiliary enzymes was investigated first. In every case, there was no influence on either enzyme detected, thus enabling the reliable determination of the QC inhibition. The inhibitory constant was evaluated by fitting the set of progress curves to the general equation for competitive inhibition using GraFit software.

hQC, sequence (Q16769 29-361): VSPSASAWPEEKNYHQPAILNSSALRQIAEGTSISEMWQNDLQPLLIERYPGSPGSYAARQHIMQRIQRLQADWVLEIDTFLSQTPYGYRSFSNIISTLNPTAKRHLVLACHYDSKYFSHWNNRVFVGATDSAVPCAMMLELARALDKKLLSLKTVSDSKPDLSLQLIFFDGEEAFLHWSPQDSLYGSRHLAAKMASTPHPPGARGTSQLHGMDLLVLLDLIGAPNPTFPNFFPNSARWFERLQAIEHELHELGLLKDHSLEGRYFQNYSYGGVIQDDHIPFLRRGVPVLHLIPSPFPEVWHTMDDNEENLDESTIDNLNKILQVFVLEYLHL

Turning to `O=C1CCCN1CCC/N=C1/NC(=O)N(c2ccc3[nH]cnc3c2)C1c1ccc2c(c1)OCO2` (stereo not shown) [Compound 168, 5-Benzo[1,3]dioxol-5-yl-1-(1H-benzoimidazol-5-yl)-4-(3-(2-oxo-pyrrolidin-1-yl)-propylimino)-imidazolidin-2-one], the pIC50 was 7.56 (compound from preparative synthesis, purified by chromatography, fluorescent assay, read-out: IC50 hQC) and 8.40 (read-out: IC50).
On to `S=C1N/C(=N/Cc2ccc3[nH]ccc3c2)C(c2cc(Br)cc(Br)c2)N1c1ccc2nc[nH]c2c1` (stereo not shown) [Compound 132, 1-(3H-Benzoimidazol-5-yl)-5-(3,5-dibromo-phenyl)-4-1H-indol-5-ylmethylimino-imidazolidine-2-thione], for which the negative-log IC50 (pIC50) (read-out: IC50) is 5.31.
Still for that read-out and setting: to `O=C1CCCN1CCCN=C1NC(=O)N(c2ccc3[nH]cnc3c2)C1c1cccc2cccnc12` (stereo not shown) [Compound 215, 1-(1H-Benzoimidazol-5-yl)-4-3-(2-oxo-pyrrolidin-1-yl)-propylimino-5-quinolin-8-yl-imidazolidin-2-one] belongs 5.17.
Same read-out and setting: to `O=C1N/C(=N\c2ccc3c(c2)OCCO3)C(C2CCC=CO2)N1CCCn1ccnc1` (stereo not shown) [Compound 30, 4-2,3-Dihydro-benzo1,4dioxin-6-ylimino-5-(3,4-dihydro-2H-pyran-2-yl)-1-(3-imidazol-1-yl-propyl)-imidazolidin-2-one] belongs 5.17; to `O=C(C/N=C1\NC(=O)N(CCCn2ccnc2)C1c1cccc(F)c1F)N1CCc2ccccc2C1` (stereo not shown) [Compound 68, 5-(2,3-Difluoro-phenyl)-4-2-(3,4-dihydro-1H-isoquinolin-2-yl)-2-oxo-ethylimino-1-(3-imidazol-1-yl-propyl)-imidazolidin-2-one], 5.40; to `O=C1N/C(=N/CCN2CCOCC2)C(c2cc(Br)cc(Br)c2)N1c1ccc2nc[nH]c2c1` (stereo not shown) [Compound 296, 1-(3H-Benzoimidazol-5-yl)-5-(3,5-dibromo-phenyl)-4-2-morpholin-4-yl-ethylimino-imidazolidin-2-one], 5.31.
Still for that read-out and setting: with `O=C1N/C(=N/Cc2cccnc2)C(c2cc(F)cc(F)c2)N1CCCn1ccnc1` (stereo not shown) [Compound 90, 5-(3,5-Difluoro-phenyl)-1-(3-imidazol-1-yl-propyl)-4-pyridin-3-ylmethylimino-imidazolidin-2-one] the figure was 5.07; with `O=C1N/C(=N/CCc2cccs2)C(c2ccc(O)cc2)N1CCCn1ccnc1` (stereo not shown) [Compound 45, 5-(4-Hydroxy-phenyl)-1-(3-imidazol-1-yl-propyl)-4-2-thiophen-2-yl-ethylimino-imidazolidin-2-one], 5.31; with `O=C(C/N=C1\NC(=S)N(c2ccc3[nH]cnc3c2)C1c1cc2c(cc1Br)OCO2)NN1CCCCC1` (stereo not shown) [Compound 143], 5.66.
For `CCc1ccccc1/N=C1\NC(=S)N(c2ccc3[nH]cnc3c2)C1c1ccccc1` (stereo not shown) [Compound 317, 1-(1H-Benzoimidazol-5-yl)-4-2-ethyl-phenylimino-5-phenyl-imidazolidine-2-thione], the negative logarithm of the IC50 (pIC50) (read-out: IC50) is 5.03.
The same measure, in the same setting: to `Cc1ccc(C2/C(=N/C(C)(C)CC(C)(C)C)NC(=O)N2c2ccc3nc[nH]c3c2)c(C)c1` (stereo not shown) [Compound 262, 1-(3H-Benzoimidazol-5-yl)-5-(2,4-dimethyl-phenyl)-4-1,1,3,3-tetramethyl-butylimino-imidazolidin-2-one] belongs 5.89; to `O=C1CCCN1CCC/N=C1/NC(=O)N(c2ccc3[nH]cnc3c2)C1c1ccc2[nH]ccc2c1` (stereo not shown) [Compound 289, 1-(1H-benzoimidazol-5-yl)-5-(1H-indol-5-yl)-4-3-(2-oxo-pyrrolidin-1-yl)-propylimino-imidazolidin-2-one], 8.40; to `C/N=C1/NC(=O)N(c2ccc3[nH]cnc3c2)C1c1ccc(C)cc1` (stereo not shown) [Compound 167, 1-(1H-Benzoimidazol-5-yl)-4-methylimino-5-p-tolyl-imidazolidin-2-one], 6.40.
On the same count and under the same terms, with `O=C1N/C(=N\C2CCCc3ccccc32)C(c2cccc(Br)c2)N1c1ccc2[nH]cnc2c1` (stereo not shown) [Compound 336, 1-(1H-Benzoimidazol-5-yl)-5-(3-bromo-phenyl)-4-1,2,3,4-tetrahydro-naphthalen-1-ylimino-imidazolidin-2-one] the figure was 8.40; with `O=C1NC(=NCC2CCCO2)C(c2cc(F)cc(F)c2)N1CCCn1ccnc1` (stereo not shown) [Compound 115, 5-(3,5-Difluoro-phenyl)-1-(3-imidazol-1-yl-propyl)-4-tetrahydro-furan-2-ylmethylimino-imidazolidin-2-one], 5.12.
Same read-out and setting: with `COC(=O)C(C)/N=C1\NC(=S)N(c2ccc3[nH]cnc3c2)C1c1ccc(C)cc1` (stereo not shown) [Compound 249, Methyl 2-(1-(1H-benzo[d]imidazol-5-yl)-2-thioxo-5-p-tolylimidazolidin-4-ylideneamino)propanoate] the figure was 5.24; with `CC(/N=C1\NC(=O)N(CCCn2ccnc2)C1c1ccccc1Cl)c1ccccc1` (stereo not shown) [Compound 10, 5-(2-Chloro-phenyl)-1-(3-imidazol-1-yl-propyl)-4-1-phenyl-ethylimino-imidazolidin-2-one], 5.21.
For `O=C1N/C(=N/Cc2cccnc2)C(c2cc(F)cc(F)c2)N1c1ccc2[nH]cnc2c1` (stereo not shown) [Compound 227, 1-(1H-Benzoimidazol-5-yl)-5-(3,5-difluoro-phenyl)-4-pyridin-3-ylmethylimino-imidazolidin-2-one], the pIC50 (read-out: IC50) is 5.89.
`O=C1N/C(=N\CCC(c2ccccc2)c2ccccc2)C(c2cccc(F)c2)N1CCCn1ccnc1` (stereo not shown) [Compound 113, 4-3,3-Diphenyl-propylimino-5-(3-fluoro-phenyl)-1-(3-imidazol-1-yl-propyl)-imidazolidin-2-one]: where the note is “read-out: IC50”, the negative logarithm of the IC50 (pIC50) was 5.12.
The same measure, in the same setting: to `O=C(CN=C1NC(=O)N(c2ccc3[nH]cnc3c2)C1c1cc2c(cc1Br)OCO2)N1CCCCC1` (stereo not shown) [Compound 327, 4-(2-Oxo-2-(piperidin-1-yl)ethylimino)-1-(1H-benzo[d]imidazol-5-yl)-5-(5-bromobenzo[d][1,3]dioxol-6-yl)imidazolidin-2-one] belongs 8.40; to `O=C1NC(=NCCC(c2ccccc2)c2ccccc2)C(c2ccc(Cl)c(F)c2)N1CCCn1ccnc1` (stereo not shown) [Compound 109, 5-(4-Chloro-3-fluoro-phenyl)-4-3,3-diphenyl-propylimino-1-(3-imidazol-1-yl-propyl)-imidazolidin-2-one], 5.12.
Consider `Cc1cccc(C2/C(=N/CCCN(C)C)NC(=O)N2c2ccc3[nH]cnc3c2)c1` (stereo not shown) [Compound 253, 4-(3-(Dimethylamino)propylimino)-1-(1H-benzo[d]imidazol-5-yl)-5-m-tolylimidazolidin-2-one], for which the pIC50 (read-out: IC50) is 5.03.
Consider `O=C1NC(c2cc(F)cc(F)c2)/C(=N\CC(O)c2ccccc2)N1c1ccc2[nH]cnc2c1` (stereo not shown) [Compound 153, 1-(1H-Benzoimidazol-5-yl)-5-(3,5-difluoro-phenyl)-4-2-hydroxy-2-phenyl-ethylimino-imidazolidin-2-one], for which the pIC50 (read-out: IC50) is 6.40.
The same measure, in the same setting: to `O=C(C/N=C1\NC(=S)N(c2ccc3[nH]cnc3c2)C1c1ccccc1C(F)(F)F)N1CCCCC1` (stereo not shown) [Compound 144, 2-1-(1H-Benzoimidazol-5-yl)-2-thioxo-5-(2-trifluoromethyl-phenyl)-imidazolidin-(4Z)-ylideneamino-1-piperidin-1-yl-ethanone] belongs 5.89.
Consider `O=C(CN=C1NC(=O)N(c2ccc3[nH]cnc3c2)C1c1ccc2[nH]ccc2c1)N1CCC(O)C1` (stereo not shown) [Compound 222, 1-(1H-Benzoimidazol-5-yl)-4-2-(3-hydroxy-pyrrolidin-1-yl)-2-oxo-ethylimino-5-(1H-indol-5-yl)-imidazolidin-2-one], for which, where the note is “read-out: IC50”, the negative logarithm of the IC50 (pIC50) is 5.89.
On to `O=C1N/C(=N\Cc2ccc(Cl)cc2)C(c2ccccc2Cl)N1CCCn1ccnc1` (stereo not shown) [Compound 21], for which the pIC50 (read-out: IC50) is 5.12.
The same measure, in the same setting: with `CCCCC1/C(=N/C(c2ccccc2)c2ccccc2)NC(=O)N1CCCn1ccnc1` (stereo not shown) [Compound 86, 4-Benzhydrylimino-5-butyl-1-(3-imidazol-1-yl-propyl)-imidazolidin-2-one] the figure was 5.24; with `S=C1N/C(=N\C2CCCC2)C(c2ccc(N3CCCC3)cc2)N1c1ccc2[nH]cnc2c1` (stereo not shown) [Compound 210, 1-(1H-Benzoimidazol-5-yl)-4-cyclopentylimino-5-(4-pyrrolidin-1-yl-phenyl)-imidazolidine-2-thione], 5.51.
The same measure, in the same setting: with `O=C1N/C(=N\CCC(c2ccccc2)c2ccccc2)C(C2CCC=CO2)N1CCCn1ccnc1` (stereo not shown) [Compound 106, 5-(3,4-Dihydro-2H-pyran-2-yl)-4-3,3-diphenyl-propylimino-1-(3-imidazol-1-yl-propyl)-imidazolidin-2-one] the figure was 5.12; with `O=C1N/C(=N/CCC(c2ccccc2)c2ccccc2)C(CO)N1CCCn1ccnc1` (stereo not shown) [Compound 111, 4-3,3-Diphenyl-propylimino-5-hydroxymethyl-1-(3-imidazol-1-yl-propyl)-imidazolidin-2-one], 5.03.
